Tests used:
Hep 3B tumors = experiment: Hep 3B subcutaneous xenograft in nude mice, tumor volume
Protocol: In this example, 0.6 mg/ml LNP (MC3) formulated effector (dCas9-MQ1/GD-17) was delivered to tumor sites by intratumoral injection on day 1 and day 7 (20 μl/mice) in the test group animals. The control group mice were injected at the tumor site either with PBS or with 0.6 mg/ml LNP (MC3) control effector dCas9/GD-SafeHarbor (20 μl/mice). Each control and test group consisted of 6 animals having SubQ Hep3B Xenografts (250 mm^3). Changes in tumor volume for each group was measured every 3 days for 15 days. At the end of 15 days, the changes in mean tumor volume were measured using Paired T-test and was plotted.
(§1) Hep 3B tumor cells were implanted into the left flank of thirty female nude mice to induce tumor. Changes in tumor volume was measured and the treatment initiated when mean tumor volume reached approximately 100-150 mm^3. Mice were divided into treatment and control groups so that mean tumor volume in each group were approximately equal. Control groups were injected either with PBS or with MYCi975, a small molecule comparator. The mice in each group were injected intratumorally with PBS (every 5 days for 3 doses then switched to IV for 2 doses), intravenously with ZF9-MQ1 (every 5 days at 3 mg/kg) or intraperitoneally with MYCi975 (once daily for 5 days/week). All animals were weighed daily and assessed visually. Changes in tumor volume for each group were measured 3 times per week. Over the course of 22 days, the changes in body weight from baseline and the mean tumor volume were measured using Paired T-test and was plotted (FIG. 14A-B).
Hep 3B tumor cells were implanted into the left flank of seventy-two female nude mice to induce tumor. Changes in tumor volume was measured and the treatment initiated when mean tumor volume reached approximately 200 mm^3. Mice were divided into nine treatment groups (8 mice each) so that mean tumor volume in each group was approximately equal. The mice in each group were injected intravenously with PBS (every 5 days for 3 doses then every 3 days for 3 doses), ZF9-MQ1 at 1 mg/kg and 3 mg/kg (every 5 days for 3 doses then every 3 days for 3 doses), co-formulated ZF9-MQ1+ZF3-KRAB at 1 mg/kg and 3 mg/kg (every 5 days for 3 doses then every 3 days for 3 doses), negative control mRNA at 1 mg/kg and 3 mg/kg (every 5 days for 3 doses then every 3 days for 3 doses), intraperitoneal with MYCi975 at 100 mg/kg (once daily for 5 days per week) or intraperitoneal with cisplatin at 1 mg/kg (once every 15 days). All animals were weighed daily and assessed visually. Changes in tumor volume were measured 3 times per week.
Disease was induced in female nude mice by the implantation of Hep 3B tumor cells into the left flank. […] All animals were weighed daily and assessed visually. Tumors sizes were measured 3 times per week. […]

[1] = Body weight and tolerability of tumor bearing mice
Protocol: as §1
All animals were weighed daily and assessed visually.

[2] = Overall animal (body) weight in the tumor studies (FIGS. 14-16, 20); format: in vivo, mice; settings: doses as in the respective tumor study
HEPG2 tumors = experiment: HepG2 subcutaneous xenograft in nude mice; format: in vivo; design: dose or concentration left out as unconfirmed
SKHEP1 tumors = experiment: SKHEP1 subcutaneous xenograft in nude mice; format: in vivo; settings: 50 mg/kg orally daily
Protocol: Animals were dosed every 5 days.
Sorafenib was given daily at 50 mg/kg.

Hep3B-luc tumors = experiment: Orthotopic Hep3B-luc model, tumor bioluminescence; format: in vivo, mice (Fox Chase CB17 SCID; nude); settings: nude mice
Protocol: Tumor progression was measured by luminescence. […] It is unclear whether this is related to treatment. […] Statistically significant differences were observed between treatment groups.
Sorafenib was given orally (PO) daily (QD) as a standard of care control. Tumor progression was measured by luminescence. No animal deaths were noted.

| SMILES | increase in tumor volume (Hep 3B tumors; Example 44, 25 mg/kg alone, 12 days) | weight gain ([1]; SK-HEP-1 subcutaneous, 50 mg/kg orally daily) | body weight ([1]; orthotopic Hep3B-luc, SCID mice, ZF9-MQ1+ZF3-KRAB 1.5-6 mg/kg every 5 days, sorafenib 50 mg/kg daily orally) | overall animal (body) weight, result in words [2] | tumor growth relative to PBS controls (Hep 3B tumors; 50 mg/kg orally every day (Example 35)) | tumor growth relative to PBS controls (Hep 3B tumors; Example 40, 50 mg/kg orally daily) | tumor growth relative to PBS control (Hep 3B tumors; Example 43, 25 mg/kg QD alone, 16 days) | tumor growth (HEPG2 tumors) | tumor growth (SKHEP1 tumors) | tumor luminescence relative to PBS controls (Hep3B-luc tumors; Example 45, 50 mg/kg orally daily) | tumor luminescence relative to PBS controls (Hep3B-luc tumors; Example 46, 50 mg/kg PO QD) |
| --- | --- | --- | --- | --- | --- | --- | --- | --- | --- | --- | --- |
| Cc1sc2c(c1C)C(c1ccc(Cl)cc1)=N[C@@H](CC(=O)OC(C)(C)C)c1nnc(C)n1-2 [JQ1] | did not significantly inhibit | – | – | – | – | – | – | – | – | – | – |
| CNC(=O)c1cc(Oc2ccc(NC(=O)Nc3ccc(Cl)c(C(F)(F)F)c3)cc2)ccn1 [sorafenib] | – | Statistically significant reductions in weight gain | initial drop in body weight | initial drop in body weight with a later gain in overall body weight | statistically significant reduction in tumor growth | statistically significant reduction in tumor growth | did not significantly reduce tumor growth | statistically significant reduction in tumor growth | statistically significant reduction in tumor growth | statistically significant reduction in tumor luminescence | statistically significant reduction in tumor luminescence |
